The source made the active and inactive calls. The rule behind the calls is not given here. *1 amine or outer side, *2 acyl side, *3 side chain or, on linkers, in order; H or OH if unused. Where a SMILES comes first, the peptide text is derived from it. Bridges are numbered along the chain shown (N, C = ends). [ ]: non-standard residue; d: D form. X5 = O=C(O)CCCCCCCCCCCCCCCCC(=O)NC(CCC(=O)NCCOCCOCC(=O)NCCOCCOCC(=O)NCCCCCCNC(=O)C(CCCCNC(=O)CCN1C(=O)CC([*:2])C1=O)NC(=O)CCN1C(=O)CC([*:1])C1=O)C(=O)O; sY = N[C@@H](Cc1ccc(OS(=O)(=O)O)cc1)C(=O)O; AEEA = NCCOCCOCC(=O)O; Aib = CC(C)(N)C(=O)O
How the values were obtained:
serum albumin = serum albumin (Homo sapiens, UniProt P02768); assay: Binding affinity to human serum albumin in PBS pH 7.4 at 100 ug/mL incubated for 2 hrs by LC-MS/MS analysis relative to control; format: ADME; conditions: at 100 µg/mL, read-out: PB (converted)
[1] = target: T1, Glucagon-like peptide 1 receptor (Homo sapiens, UniProt P43220); assay: Ratio of EC50 for agonist activity at human GLP-1R expressed in HEK293 cells in presence of 4.4% HSA to EC50 for agonist activity at human GLP-1R expressed in HEK293 cells in presence of 0% HSA; format: cell-based
[2] = target: T1, Glucagon-like peptide 1 receptor; assay: Agonist activity at human GLP-1R expressed in HEK293 cells assessed as stimulation of cAMP accumulation incubated for 20 mins in presence of 4.4% HSA; format: functional, cell-based
[3] = target: T1, Glucagon-like peptide 1 receptor; assay: Agonist activity at human GLP-1R expressed in HEK293 cells assessed as stimulation of cAMP accumulation incubated for 20 mins in presence of 0% HSA; format: functional, cell-based
Mus musculus [4] = assay: Hypoglycemic activity in non-fasted db/db mouse assessed as duration of time during which decrease in blood glucose concentration is observed at 25 nmol/kg, sc by OGTT method; format: functional
Mus musculus [5] = assay: Reduction in body weight in C57BL/6 mouse model of diet induced obesity at 25 nmol/kg, sc dosed every 2 days for 1 week relative to control; format: functional; set-up: scale not given: the % may be the effect or the level left; conditions: time 1 weeks
Mus musculus [6] = assay: Reduction in fasted hyperglycemia in C57BL/6 mouse model of diet induced obesity at 25 nmol/kg, sc dosed every 2 days for 1 week relative to control; format: functional, organism-based; conditions: time 1.0 weeks
Mus musculus [7] = assay: Hypoglycemic activity in non-fasted db/db mouse assessed as decrease in blood glucose concentration at 25 nmol/kg, sc by OGTT method; format: functional, organism-based
Mus musculus [8] = assay: Reduction in food intake in C57BL/6 mouse model of diet induced obesity at 25 nmol/kg, sc dosed every 2 days for 1 week relative to control; format: functional, organism-based; conditions: time 1.0 weeks
Mus musculus [9] = assay: Hypoglycemic activity in ICR mouse assessed as decrease in blood glucose concentration at 25 nmol/kg, ip dosed 15 mins before test and measured up to 120 mins by OGTT method; format: functional, organism-based
[10] = target: T2, Gastrin/cholecystokinin type B receptor (Homo sapiens, UniProt P32239); assay: Agonist activity at human CCK-2R expressed in HEK293 cells assessed as stimulation of ERK phosphorylation incubated for 5 mins; format: cell-based
T2 sequence (P32239 whole entry): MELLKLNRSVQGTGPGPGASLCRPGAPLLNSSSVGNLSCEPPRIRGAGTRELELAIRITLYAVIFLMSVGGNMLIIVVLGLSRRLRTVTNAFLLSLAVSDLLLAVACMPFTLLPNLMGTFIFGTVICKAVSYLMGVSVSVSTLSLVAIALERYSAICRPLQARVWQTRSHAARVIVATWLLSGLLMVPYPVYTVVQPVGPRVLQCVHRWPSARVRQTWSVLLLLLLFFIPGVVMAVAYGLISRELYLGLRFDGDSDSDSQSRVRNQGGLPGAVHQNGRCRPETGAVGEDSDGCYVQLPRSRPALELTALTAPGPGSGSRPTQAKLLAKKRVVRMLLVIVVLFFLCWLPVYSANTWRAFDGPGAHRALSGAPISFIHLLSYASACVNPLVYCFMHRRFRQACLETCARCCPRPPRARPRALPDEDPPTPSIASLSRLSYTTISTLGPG

[11] = target: T3, Cholecystokinin receptor type A (Homo sapiens, UniProt P32238); assay: Agonist activity at human CCK-1R expressed in HEK293 cells assessed as stimulation of ERK phosphorylation incubated for 5 mins; format: cell-based
T3 sequence (P32238 whole entry): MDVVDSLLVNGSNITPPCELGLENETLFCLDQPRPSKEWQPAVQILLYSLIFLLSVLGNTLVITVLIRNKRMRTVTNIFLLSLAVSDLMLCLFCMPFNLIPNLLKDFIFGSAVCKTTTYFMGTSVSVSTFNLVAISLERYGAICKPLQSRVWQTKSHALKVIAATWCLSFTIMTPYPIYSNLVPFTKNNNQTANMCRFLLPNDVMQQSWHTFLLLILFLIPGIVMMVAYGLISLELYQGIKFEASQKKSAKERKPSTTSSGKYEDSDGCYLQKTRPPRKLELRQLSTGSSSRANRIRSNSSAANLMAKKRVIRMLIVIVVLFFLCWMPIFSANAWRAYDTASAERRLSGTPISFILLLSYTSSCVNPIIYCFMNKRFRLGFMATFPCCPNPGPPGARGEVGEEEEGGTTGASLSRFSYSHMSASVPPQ

[12] = target: T1, Glucagon-like peptide 1 receptor; assay: Agonist activity at human GLP-1R expressed in HEK293 cells assessed as stimulation of cAMP accumulation incubated for 20 mins; format: functional, cell-based

T1 sequence (P43220 whole entry): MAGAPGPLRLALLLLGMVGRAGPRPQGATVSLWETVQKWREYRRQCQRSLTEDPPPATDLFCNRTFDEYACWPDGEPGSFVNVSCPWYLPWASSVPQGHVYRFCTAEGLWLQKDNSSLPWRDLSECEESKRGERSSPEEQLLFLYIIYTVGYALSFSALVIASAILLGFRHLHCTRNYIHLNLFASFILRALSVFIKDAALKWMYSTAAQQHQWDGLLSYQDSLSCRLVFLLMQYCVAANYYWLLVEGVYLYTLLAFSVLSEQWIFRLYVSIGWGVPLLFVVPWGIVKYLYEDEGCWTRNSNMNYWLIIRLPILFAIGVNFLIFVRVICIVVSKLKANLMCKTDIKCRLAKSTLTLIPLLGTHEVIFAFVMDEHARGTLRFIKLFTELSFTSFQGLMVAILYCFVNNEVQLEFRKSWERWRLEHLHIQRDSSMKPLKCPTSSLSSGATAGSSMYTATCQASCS
Sequence of serum albumin (P02768 whole entry): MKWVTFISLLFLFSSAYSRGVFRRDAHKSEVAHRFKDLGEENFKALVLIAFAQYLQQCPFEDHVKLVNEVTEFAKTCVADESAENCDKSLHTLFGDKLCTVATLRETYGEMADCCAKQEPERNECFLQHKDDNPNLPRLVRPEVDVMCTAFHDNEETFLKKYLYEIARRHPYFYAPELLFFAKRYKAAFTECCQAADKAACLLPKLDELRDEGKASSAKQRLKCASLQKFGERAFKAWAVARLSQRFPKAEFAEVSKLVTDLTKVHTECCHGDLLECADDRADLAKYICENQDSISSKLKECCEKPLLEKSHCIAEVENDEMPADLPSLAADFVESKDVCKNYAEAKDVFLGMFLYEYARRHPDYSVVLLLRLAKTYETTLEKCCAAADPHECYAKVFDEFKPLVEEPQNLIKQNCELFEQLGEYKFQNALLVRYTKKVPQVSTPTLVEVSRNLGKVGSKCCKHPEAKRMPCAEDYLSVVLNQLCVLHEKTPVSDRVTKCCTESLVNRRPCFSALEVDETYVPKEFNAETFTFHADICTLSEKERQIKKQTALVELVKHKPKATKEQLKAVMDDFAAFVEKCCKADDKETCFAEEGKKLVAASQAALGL

Compound	fraction unbound at 2 h, 100 ug/mL (serum albumin)	Ratio EC50 [1]	EC50 [2] [nM]	EC50 [3] [nM]	Time (Mus musculus [4]) [h]	Activity (Mus musculus [5]) [%]	Activity (Mus musculus [6])	Activity (Mus musculus [7])	Activity (Mus musculus [8])	Activity (Mus musculus [9])	EC50 [10] [nM]	EC50 [11] [nM]	EC50 [12] [nM]
CC[C@H](C)[C@H](NC(=O)[C@H](CC(C)C)NC(=O)[C@H](Cc1c[nH]c2ccccc12)NC(=O)[C@H](CCC(=O)O)NC(=O)[C@@H](NC(=O)[C@H](Cc1ccccc1)NC(=O)[C@@H]1CSC2CC(=O)N(CCC(=O)NC(C(=O)NCCCCCCNC(=O)COCCOCCNC(=O)COCCOCCNC(=O)CCC(NC(=O)CCCCCCCCCCCCCCCCC(=O)O)C(=O)O)CCCCNC(=O)CCN3C(=O)CC(SC[C@H](NC(=O)[C@H](Cc4ccc(O)cc4)NC(=O)[C@H](CCC(=O)O)NC(=O)[C@@H](NC(=O)[C@@H](NC(=O)[C@H](CC(=O)O)NC(=O)[C@H](CC(N)=O)NC(=O)[C@@H](NC(=O)[C@H](Cc4ccc(O)cc4)NC(=O)[C@@H](NC(=O)CNC(=O)[C@H](CCC(=O)O)NC(=O)C(C)(C)NC(=O)[C@@H](N)Cc4c[nH]cn4)[C@@H](C)O)[C@@H](C)O)C(C)C)[C@@H](C)O)C(=O)N[C@@H](CCC(=O)O)C(=O)N[C@@H](CCC(=O)O)C(=O)N[C@@H](CCC(=O)O)C(=O)N[C@@H](C)C(=O)N[C@@H](C)C(=O)N[C@@H](CCCCN)C(=O)N1)C3=O)C2=O)[C@@H](C)CC)C(=O)N[C@@H](CCCCN)C(=O)NCC(=O)N[C@@H](CCCCN)C(=O)N1CCC[C@H]1C(=O)N[C@@H](CO)C(=O)N[C@@H](CO)C(=O)NCC(=O)N[C@@H](C)C(=O)N1CCC[C@H]1C(=O)N1CCC[C@H]1C(=O)N1CCC[C@H]1C(=O)N[C@@H](CO)C(N)=O (stereo not given in full) (HELM PEPTIDE1{H.[Aib].E.G.T.Y.T.N.D.V.T.E.Y.C.E.E.E.A.A.K.C.F.I.E.W.L.I.K.G.K.P.S.S.G.A.P.P.P.S.[am]}|CHEM1{[O=C(O)CCCCCCCCCCCCCCCCC(=O)NC(CCC(=O)NCCOCCOCC(=O)NCCOCCOCC(=O)NCCCCCCNC(=O)C(CCCCNC(=O)CCN1C(=O)CC([*:1])C1=O)NC(=O)CCN1C(=O)CC([*:2])C1=O)C(=O)O]}$PEPTIDE1,CHEM1,14:R3-1:R1|PEPTIDE1,CHEM1,21:R3-1:R2$$$V2.0)	0.047	108	2.7	0.025	24	13.8	Active	Active	–	–	–	–	–
CC[C@H](C)[C@H](NC(=O)[C@H](CC(C)C)NC(=O)[C@H](Cc1c[nH]c2ccccc12)NC(=O)[C@H](CCC(=O)O)NC(=O)[C@@H](NC(=O)[C@H](Cc1ccccc1)NC(=O)[C@@H]1CSC2CC(=O)N(CCC(=O)NC(C(=O)NCCCCCCNC(=O)COCCOCCNC(=O)CCC(NC(=O)CCCCCCCCCCCCCCCCC(=O)O)C(=O)O)CCCCNC(=O)CCN3C(=O)CC(SC[C@H](NC(=O)[C@H](Cc4ccc(O)cc4)NC(=O)[C@H](CCC(=O)O)NC(=O)[C@@H](NC(=O)[C@@H](NC(=O)[C@H](CC(=O)O)NC(=O)[C@H](CC(N)=O)NC(=O)[C@@H](NC(=O)[C@H](Cc4ccc(O)cc4)NC(=O)[C@@H](NC(=O)CNC(=O)[C@H](CCC(=O)O)NC(=O)C(C)(C)NC(=O)[C@@H](N)Cc4c[nH]cn4)[C@@H](C)O)[C@@H](C)O)C(C)C)[C@@H](C)O)C(=O)N[C@@H](CCC(=O)O)C(=O)N[C@@H](CCC(=O)O)C(=O)N[C@@H](CCC(=O)O)C(=O)N[C@@H](C)C(=O)N[C@@H](C)C(=O)N[C@@H](CCCCN)C(=O)N1)C3=O)C2=O)[C@@H](C)CC)C(=O)N[C@@H](CCCCN)C(=O)NCC(=O)N[C@@H](CCCCN)C(N)=O (stereo not given in full) (HELM PEPTIDE1{H.[Aib].E.G.T.Y.T.N.D.V.T.E.Y.C.E.E.E.A.A.K.C.F.I.E.W.L.I.K.G.K.[am]}|CHEM1{[O=C(O)CCCCCCCCCCCCCCCCC(=O)NC(CCC(=O)NCCOCCOCC(=O)NCCCCCCNC(=O)C(CCCCNC(=O)CCN1C(=O)CC([*:1])C1=O)NC(=O)CCN1C(=O)CC([*:2])C1=O)C(=O)O]}$PEPTIDE1,CHEM1,14:R3-1:R1|PEPTIDE1,CHEM1,21:R3-1:R2$$$V2.0)	0.074	47.5	2.8	0.059	24	9.8	Active	Active	Active	–	–	–	–
CC[C@H](C)[C@@H]1NC(=O)[C@H](CC(C)C)NC(=O)[C@H](Cc2c[nH]c3ccccc23)NC(=O)[C@H](CCC(=O)O)NC(=O)[C@H]([C@@H](C)CC)NC(=O)[C@H](Cc2ccccc2)NC(=O)[C@@H](NC(=O)[C@H](CCCCN)NC(=O)[C@H](C)NC(=O)[C@H](C)NC(=O)[C@H](CCC(=O)O)NC(=O)[C@H](CCC(=O)O)NC(=O)[C@H](CCC(=O)O)NC(=O)[C@H](CC(C)C)NC(=O)[C@H](Cc2ccc(O)cc2)NC(=O)[C@H](CCC(=O)O)NC(=O)[C@@H](NC(=O)[C@@H](NC(=O)[C@H](CC(=O)O)NC(=O)[C@H](CC(N)=O)NC(=O)[C@@H](NC(=O)[C@H](Cc2ccc(O)cc2)NC(=O)[C@@H](NC(=O)CNC(=O)[C@H](CCC(=O)O)NC(=O)C(C)(C)NC(=O)[C@@H](N)Cc2c[nH]cn2)[C@@H](C)O)[C@@H](C)O)C(C)C)[C@@H](C)O)CSC2CC(=O)N(CCC(=O)NC(C(=O)NCCCCCCNC(=O)COCCOCCNC(=O)CCC(NC(=O)CCCCCCCCCCCCCCCCC(=O)O)C(=O)O)CCCCNC(=O)CCN3C(=O)CC(SC[C@@H](C(=O)NCC(=O)N[C@@H](CCCCN)C(N)=O)NC1=O)C3=O)C2=O (stereo not given in full) (HELM PEPTIDE1{H.[Aib].E.G.T.Y.T.N.D.V.T.E.Y.L.E.E.E.A.A.K.C.F.I.E.W.L.I.C.G.K.[am]}|CHEM1{[O=C(O)CCCCCCCCCCCCCCCCC(=O)NC(CCC(=O)NCCOCCOCC(=O)NCCCCCCNC(=O)C(CCCCNC(=O)CCN1C(=O)CC([*:2])C1=O)NC(=O)CCN1C(=O)CC([*:1])C1=O)C(=O)O]}$PEPTIDE1,CHEM1,21:R3-1:R1|PEPTIDE1,CHEM1,28:R3-1:R2$$$V2.0)	0.084	55.1	3.8	0.069	24	13.4	Active	Active	Active	–	–	–	–
H-HGEGTYTNDVTEYLEEEAAKEFIEWLIKGKPSSGAPPPS-NH2	–	–	–	–	–	–	–	–	–	Active	> 1000	> 1000	0.034
H-H[Aib]EGTYTNDVTEYCEEEAAKCFIEWLIKGKPSSGAPPPS[AEEA][AEEA]YGWLDF-NH2 (cysteines drawn unpaired)	–	–	–	–	–	–	–	–	–	–	8.3	> 1000	0.04
H-H[Aib]EGTYTNDVTEYCEEEAAKCFIEWLIKGKPSSGAPPPS[AEEA][AEEA][sY]GWMDF-NH2 (cysteines drawn unpaired)	–	–	–	–	–	–	–	–	–	–	7.6	> 1000	0.038
H-H[Aib]EGTYTNDVTEYLEEEAAKCFIEWLICGKPSSGAPPPS[AEEA][AEEA]YGWLDF-NH2 (cysteines drawn unpaired)	–	–	–	–	–	–	–	–	–	–	9.4	> 1000	0.048
H-H[Aib]EGTYTNDVTEYLEEEAAKCFIEWLICGKPSSGAPPPS[AEEA][AEEA][sY]GWMDF-NH2 (cysteines drawn unpaired)	–	–	–	–	–	–	–	–	–	–	8.2	> 1000	0.059
H-H[Aib]EGTYTNDVTEYLEEEAAKCFIEWLICGKPSSGAPPSKKKKKK-NH2 (linker 21-28 via X5)	0.033	79.4	2.7	0.034	24	10.6	Active	Active	–	–	–	–	–

Source: ChEMBL document CHEMBL4699602, “Stapled and Xenopus Glucagon-Like Peptide 1 (GLP-1)-Based Dual GLP-1/Gastrin Receptor Agonists with Improved Metabolic Benefits in Rodent Models of Obesity and Diabetes” (J Med Chem, 2020)
